Laboratory results as given in US20120329736A1, “Treatment for gastrointestinal disorders using a selective, site-activated binding system” (priority 2011, published 2012).
In brackets after ≈: the same amount, converted by molar mass.

Experiments:
[1] = cited from earlier work
[2] = Hydrogen peroxide retention by extracts after desiccation and rehydration (colorimetric strips); assay type: physicochemical; conditions: dissolved in 35% hydrogen peroxide, heated at 80° C., desiccated, rehydrated
Procedure: In order to compare the samples provided above, a test series was prepared in 30 ml tubes containing from 1 g-10 g of the above extracts of Chinese Gall, Green Tea, Pomegranate and Resveratrol. Each was dissolved in 20 ml of 35% hydrogen peroxide then separate to two aliquots. One part was heated at 80° C. to a dark viscous semi-liquid and allowed to desiccate to a final volume of 5 ml. Each was rehydrated and serially diluted to detection range.

[3] = system: broad spectrum of bacteria, gram positive and gram negative; conditions: cited from earlier work

Compound	water solubility [1] [µg/mL]	peroxide retention capability [2]	MIC performance compared to the binding system [3]
Oc1ccc(C=Cc2cc(O)cc(O)c2)cc1 [Resveratrol]	3 (≈ 13.1 µM)	relatively less ability to form stable perhydrates	
RIFAXAMIN			performed poorly compared to the binding system
